Here are results for eleven compounds from ChEMBL document CHEMBL1944599, “From libraries to candidate: the discovery of new ultra long-acting dibasic β₂-adrenoceptor agonists” (Bioorg Med Chem Lett, 2012).

Where only a bound is given, the exact number is not on record here.

For data set [1], the target named is Beta-2 adrenergic receptor (Cavia porcellus, UniProt Q8K4Z4). The data set is described as follows: Agonist activity at beta2 adrenoceptor in guinea pig trachea assessed as reduction in methacholine-induced contraction. The class given is functional, tissue-based.
Sequence of Beta-2 adrenergic receptor (Cavia porcellus, UniProt Q8K4Z4) (Q8K4Z4 whole entry): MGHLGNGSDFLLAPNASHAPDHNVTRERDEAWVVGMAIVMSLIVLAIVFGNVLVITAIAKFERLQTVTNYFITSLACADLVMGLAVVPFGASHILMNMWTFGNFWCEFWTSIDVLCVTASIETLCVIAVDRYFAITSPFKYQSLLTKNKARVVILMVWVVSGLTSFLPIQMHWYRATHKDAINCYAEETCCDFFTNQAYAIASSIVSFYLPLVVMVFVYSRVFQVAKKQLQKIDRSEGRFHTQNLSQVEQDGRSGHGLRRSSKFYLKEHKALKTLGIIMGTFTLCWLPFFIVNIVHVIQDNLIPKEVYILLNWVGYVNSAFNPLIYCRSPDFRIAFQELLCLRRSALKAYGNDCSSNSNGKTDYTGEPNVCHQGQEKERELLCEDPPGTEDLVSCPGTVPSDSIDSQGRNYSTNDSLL
For data set [2], the target named is T1, Alpha-1D adrenergic receptor (Homo sapiens, UniProt P25100).
T1 sequence (P25100 whole entry): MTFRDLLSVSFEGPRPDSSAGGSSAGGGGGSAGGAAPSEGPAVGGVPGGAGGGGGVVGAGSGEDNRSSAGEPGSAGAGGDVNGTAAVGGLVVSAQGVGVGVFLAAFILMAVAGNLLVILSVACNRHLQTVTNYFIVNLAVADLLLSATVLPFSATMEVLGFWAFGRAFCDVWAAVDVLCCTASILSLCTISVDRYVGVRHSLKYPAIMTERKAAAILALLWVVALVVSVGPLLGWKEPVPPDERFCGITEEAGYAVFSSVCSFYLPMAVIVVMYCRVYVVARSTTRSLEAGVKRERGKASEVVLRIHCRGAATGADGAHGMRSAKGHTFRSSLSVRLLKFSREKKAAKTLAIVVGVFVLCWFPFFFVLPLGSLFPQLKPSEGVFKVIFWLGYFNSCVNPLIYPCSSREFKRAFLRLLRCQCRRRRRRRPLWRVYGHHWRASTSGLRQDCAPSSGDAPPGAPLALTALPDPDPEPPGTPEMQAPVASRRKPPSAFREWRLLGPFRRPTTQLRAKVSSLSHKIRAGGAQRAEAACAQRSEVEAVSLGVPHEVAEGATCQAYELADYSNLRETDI
Nature of the data set: Displacement of radiolabeled Prazosin from alpha1D adrenoceptor.

Data set [3] can be described thus: Apparent volume of distribution during terminal phase in iv dosed rat. The class given is ADME, organism-based. Conditions: in vivo, read-out: Vz.
Another data set has as its target D(2) dopamine receptor (Homo sapiens, UniProt P14416). The data set is described as follows: Displacement of radiolabeled spiperone from dopamine D2 receptor.
Data set [4] addresses Beta-2 adrenergic receptor (Cavia porcellus) (UniProt Q8K4Z4). Nature of the data set: Agonist activity at beta2 adrenoceptor in guinea pig trachea assessed as reduction in methacholine-induced contraction relative to untreated control. The class given is functional, tissue-based.
Data set [5] addresses T2, Beta-2 adrenergic receptor (Homo sapiens, UniProt P07550). The data set is described as follows: Displacement of radiolabeled iodocyanopindolol from recombinant beta2 adrenoceptor.
The target of data set [6] is T2, Beta-2 adrenergic receptor. Nature of the data set: Agonist activity at human beta2 adrenoceptor expressed in H292 cells assessed as increase in cAMP accumulation after 60 mins by spectrophotometry. The class given is functional, cell-based.
Data set [7] concerns the target Beta-1 adrenergic receptor (Homo sapiens, UniProt P08588). The data set is described as follows: Displacement of radiolabeled iodocyanopindolol from beta1 adrenoceptor.
Data set [8] can be described thus: Clearance in iv dosed rat. The settings on record: in vivo.
Another data set is described as follows: in vivo. Conditions: rat, iv.
Another data set can be described thus: physchem. Conditions: 1-octanol/aqueous buffer, pH 7.4.
The test system of the next data set is Cavia porcellus. The data set is described as follows: Bronchoprotective activity in it dosed guinea pig assessed as inhibition of histamine-induced constriction.
A further data set relates to Hepatocyte. Conditions: rat, hepatocytes.

T2 sequence (P07550 whole entry): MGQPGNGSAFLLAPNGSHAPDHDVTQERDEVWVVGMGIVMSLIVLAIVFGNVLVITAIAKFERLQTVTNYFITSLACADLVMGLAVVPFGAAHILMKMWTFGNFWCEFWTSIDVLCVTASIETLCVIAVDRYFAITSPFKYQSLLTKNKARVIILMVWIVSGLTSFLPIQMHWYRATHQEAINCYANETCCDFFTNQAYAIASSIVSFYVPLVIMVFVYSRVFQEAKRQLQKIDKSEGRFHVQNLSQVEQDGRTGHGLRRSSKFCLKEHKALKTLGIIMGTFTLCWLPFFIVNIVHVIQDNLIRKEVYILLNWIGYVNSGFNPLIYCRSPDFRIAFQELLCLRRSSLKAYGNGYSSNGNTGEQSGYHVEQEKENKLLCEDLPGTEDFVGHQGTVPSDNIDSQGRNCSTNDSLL
Sequence of Beta-1 adrenergic receptor (P08588 whole entry): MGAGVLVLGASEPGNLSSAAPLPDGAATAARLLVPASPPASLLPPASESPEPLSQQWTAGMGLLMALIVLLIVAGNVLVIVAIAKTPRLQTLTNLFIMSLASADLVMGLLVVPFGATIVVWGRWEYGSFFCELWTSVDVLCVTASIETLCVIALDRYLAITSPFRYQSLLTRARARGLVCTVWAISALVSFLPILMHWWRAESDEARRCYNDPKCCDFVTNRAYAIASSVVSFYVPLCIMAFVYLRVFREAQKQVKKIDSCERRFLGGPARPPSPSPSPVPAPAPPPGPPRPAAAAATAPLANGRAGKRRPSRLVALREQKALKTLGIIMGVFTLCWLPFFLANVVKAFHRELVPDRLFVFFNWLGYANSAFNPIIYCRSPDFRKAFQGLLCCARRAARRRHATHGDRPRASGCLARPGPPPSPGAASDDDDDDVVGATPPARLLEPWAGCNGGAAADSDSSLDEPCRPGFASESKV
Sequence of Beta-2 adrenergic receptor (Cavia porcellus) (Q8K4Z4 whole entry, looked up): as the sequence (Q8K4Z4 whole entry) above
Sequence of D(2) dopamine receptor (P14416 whole entry): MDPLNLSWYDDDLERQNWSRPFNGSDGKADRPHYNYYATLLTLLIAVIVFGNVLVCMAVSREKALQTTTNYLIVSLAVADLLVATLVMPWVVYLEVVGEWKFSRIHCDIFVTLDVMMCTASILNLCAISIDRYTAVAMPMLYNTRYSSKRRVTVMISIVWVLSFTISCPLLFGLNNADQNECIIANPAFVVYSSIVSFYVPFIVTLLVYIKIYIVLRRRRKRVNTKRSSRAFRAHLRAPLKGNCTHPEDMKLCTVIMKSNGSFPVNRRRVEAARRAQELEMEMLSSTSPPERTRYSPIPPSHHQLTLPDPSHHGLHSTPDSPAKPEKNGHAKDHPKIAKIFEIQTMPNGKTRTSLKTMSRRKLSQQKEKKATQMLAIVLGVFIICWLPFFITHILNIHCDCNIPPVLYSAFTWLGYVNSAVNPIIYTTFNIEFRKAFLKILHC
Description for Hepatocyte: Drug metabolism in rat hepatocytes
Description for in vivo: Terminal half life in iv dosed rat

As to `O=c1[nH]c2c(O)ccc([C@@H](O)CNCCc3cccc(CNCCc4ccccn4)c3)c2s1`, the EC50 (as a rule, the midpoint of the concentration-response curve) was 0.000316 µM in data set [1] and 0.000501 µM in data set [6]. Further, the IC50 (commonly the concentration needed to halve the response being measured) in data set [2] was 0.2 µM; at D(2) dopamine receptor, 1.58 µM; in [5] it was 0.00251 µM; in [7] it was 0.158 µM. The Vd in data set [3] came out at 41 L/kg. Moreover, in data set [4], the Intrinsic activity turned out to be 0.9.
As for `O=c1[nH]c2c(O)ccc([C@@H](O)CNCCc3cccc(CNCCc4ccccc4F)c3)c2s1`, the figures for the concentration giving a half-maximal response (EC50) in [1] and in data set [6] were 0.000251 µM and 0.000158 µM, respectively. In addition, the IC50 in [2] was 0.126 µM; on D(2) dopamine receptor, 0.398 µM; in data set [5] it was 0.000501 µM; in data set [7], 0.0631 µM. The Vd in [3] came out at 8.2 L/kg. In addition, the clearance – broadly, the volume of plasma or blood freed of the substance per unit of time – in data set [8] was determined as 0.36 L/h/kg. Also, the Intrinsic activity in data set [4] was determined as 0.9. In “in vivo”, the half-life (in general, the time in which the quantity being followed falls by half) was 16 h. For the same compound, in “physchem”, the log distribution coefficient (logD) (in general, the decadic logarithm of the distribution of all forms, ionised or not, between an organic phase and buffer at a given pH) was 1.1.
`C[C@@H](NCc1ccccc1-c1ccc(CCNCCc2ccc(O)c3[nH]c(=O)sc23)cc1)c1ccccc1`: the EC50 in data set [1] was 0.000251 µM. Also, the Vd in data set [3] worked out at 22 L/kg. In data set [8], this compound came in with a clearance of 1.14 L/h/kg. Besides, the Intrinsic activity in data set [4] is 0.9. Further, the IC50 in data set [5] was 0.000794 µM. In addition, in “in vivo”, the half-life is 15 h. The pH-dependent lipophilicity (logD) in “physchem” is -0.3.
As for `COc1ccccc1CNCc1cccc(CCNC[C@H](O)c2ccc(O)c3[nH]c(=O)sc23)c1.Cl`, the ED80 in the data set on Cavia porcellus amounted to 7 µg/kg.
On to `Cc1cccc2c(CCNCc3ccc(CCNC[C@H](O)c4ccc(O)c5[nH]c(=O)sc45)cc3)c[nH]c12`, for which the values for the EC50 in [1] and in [6] were 0.0002 µM and 0.000251 µM, respectively. Moreover, the IC50 in [2] was 0.1 µM; at D(2) dopamine receptor it was > 0.794 µM; in data set [5], 0.002 µM; in [7], 0.316 µM. Besides, the Vd in data set [3] is 29 L/kg. The clearance in data set [8] was found to be 1.08 L/h/kg. In data set [4], the Intrinsic activity amounted to 0.8. The half-life in the data set “in vivo” is 18 h.
Take `O=c1[nH]c2c(O)ccc(CCNCCc3cccc(-c4cccc(CNCc5ccccc5)c4)c3)c2s1`: the EC50 in data set [1] is 0.000501 µM. Also, in [3], the Vd worked out at 29 L/kg. The same compound displayed a clearance in [8] of 1.38 L/h/kg. Besides, the Intrinsic activity in data set [4] is 0.9. In [5], the IC50 is 0.0316 µM. This compound showed a half-life in “in vivo” of 14 h. The logD in the data set “physchem” came to 0.8.
Regarding `Cc1cccc2c(CCNCc3cccc(CCNC[C@H](O)c4ccc(O)c5[nH]c(=O)sc45)c3)c[nH]c12`, the IC50 in data set [2] is 0.398 µM; on D(2) dopamine receptor it was 0.398 µM; in [5], 0.000631 µM; in data set [7] it was 0.0794 µM. In data set [6], the EC50 is 0.000316 µM. The logD in “physchem” amounted to 1.1.
As for `COCCNCc1cccc(CCNC[C@H](O)c2ccc(O)c3[nH]c(=O)sc23)c1`, the EC50 in [1] was 0.00316 µM. Also, the half-maximal inhibitory concentration (IC50) was 0.501 µM in data set [2], 0.794 µM at D(2) dopamine receptor, 0.0251 µM in [5] and 0.158 µM in data set [7]. In addition, in data set [3], the Vd stood at 28 L/kg. This compound also showed a clearance in data set [8] of 1.08 L/h/kg. The Intrinsic activity in [4] is 0.8. In the data set “in vivo”, the half-life is 18 h. In addition, in the data set “physchem”, the logD was determined as 0.
Take `O=c1[nH]c2c(O)ccc([C@@H](O)CNCCc3cccc(CNCc4ccccc4F)c3)c2s1`: the 50% inhibitory concentration (IC50) in data set [2] is 0.0794 µM; at D(2) dopamine receptor, 0.631 µM; in data set [5], 0.001 µM; in data set [7], 0.00631 µM. Besides, the EC50 in data set [6] was 0.000631 µM. In the data set “physchem”, the logD was determined as 0.7.
Turning to `COc1ccccc1CCNCc1cccc(CCNC[C@H](O)c2ccc(O)c3[nH]c(=O)sc23)c1`, the IC50 in data set [2] is 0.0794 µM; on D(2) dopamine receptor, > 0.794 µM; in data set [5], 0.000794 µM; in [7] it was 0.251 µM. Further, the concentration giving a half-maximal response (EC50) in data set [6] is 0.000316 µM. Moreover, the logD in “physchem” worked out at 0.8.
For `OCc1cc(C(O)CNCCCCCCOCCCCc2ccccc2)ccc1O` (centres undefined) [SALMETEROL], the ED80 in the data set with Cavia porcellus worked out at 1 µg/kg. Also, the Drug metabolism in the data set on Hepatocyte was 85%.
